Experimental data reported in patent US5952183A, “Synthesis of estrogen-purine base and estrogen-mercapturate adducts and development of fluorescent probes and monoclonal antibodies to assay those adducts” (priority 1998, dated 1999).
Like-named read-outs stand apart in the source and are kept apart here.

How the values were obtained:
[1] = 1H-NMR monitoring of E1-2,3-Q to quinone methide tautomerization in CH3CN-d3; type: physicochemical
[2] = Stability of estrogen quinones at various pH (remaining quinone by HPLC); type: physicochemical
Description: Because acidic conditions were used to generate these estrogen-nucleoside adducts, an investigation was conducted of the effects of pH on the stability of both the 3,4- and 2,3-quinones.
^a pH was adjusted with the following buffers: pH 9, trisHCl; pH 7,
distilled H2 O; […]; pH 3, citric acid.
^b t1/2 is defined as the time when 1/2 of the original quinone
concentration was observed by HPLC
^c Quinones (0.02 mmol) were synthesized in 2 mL of CH3 CN and
placed in 10 mL of aqueous buffer

[3] = published isomerization study of model o-quinone; cited from earlier work
hamster kidney = conditions: Syrian golden hamsters; cited from earlier work
DNA = assay: Formation of DNA adducts by quinones or horseradish peroxidase-activated catechol estrogens in vitro (32P-postlabeling for stable adducts); type: biochemical
Source text: First, the o-quinones of estrogens are capable of binding directly to the nucleophilic groups of DNA bases. Second, the 3,4-quinones of estrogens produce depurinating adducts that are lost from DNA, generating apurinic sites in the DNA; and third, the 2,3-quinones form stable adducts that remain bound to DNA if not repaired. In fact, reaction of 2,3- and 3,4-quinones with DNA or CE activated by horseradish peroxidase in the presence of DNA affords differential formation of stable adducts, as evidenced by 32P-postlabeling analysis. The 2,3-quinones form 10-50 times higher levels of stable adducts than the 3,4-quinones.

DNA, rat mammary gland = assay: Formation of depurinating DNA adducts in the rat mammary gland; type: in vivo

C[C@]12CC[C@@H]3C4=CC(=O)C(=O)C=C4CC[C@H]3[C@@H]1CCC2=O [E1-2,3-Q]
change of 1H-NMR spectrum over time ([1]; CH3CN-d3, two days): unchanged for two days
change of o-quinone 1H-NMR spectrum over time with acid ([1]; CH3CN-d3 with CF3CO2H-d, two weeks): no change in the o-quinone spectrum was observed
effect of lowering pH on stability [2]: did not
decomposition under mildly basic conditions [2]: decomposed rapidly
half-life ([2]; pH 3, citric acid, read-out: t1/2 (time when 1/2 of the original quinone concentration was observed by HPLC)): 1.17 h
half-life ([2]; pH 5, trizma, read-out: t1/2 (time when 1/2 of the original quinone concentration was observed by HPLC)): 1.83 h
half-life ([2]; pH 7, distilled H2O, read-out: t1/2 (time when 1/2 of the original quinone concentration was observed by HPLC)): 1.83 h
half-life ([2]; pH 9, trisHCl, read-out: t1/2 (time when 1/2 of the original quinone concentration was observed by HPLC)): < 0.0833 h

O=C1C=C2CCCCC2=CC1=O
o-quinone more stable when tautomerized to the QM by [3]: 3.8 kcal/mol

C[C@]12CC[C@@H]3c4ccc(O)cc4CC[C@H]3[C@@H]1CCC2=O [E1, estrone]
induction of renal tumors / carcinogenicity (hamster kidney): Malignant renal tumors are induced

C[C@]12CC[C@@H]3c4ccc(O)c(O)c4CC[C@H]3[C@@H]1CC[C@@H]2O [4-OHE2, 4-hydroxyestradiol]
formation of depurinating E1(E2)-1-(α,β)-N7Gua adducts (DNA; in vitro, 3,4-quinones or enzymically-activated 4-OHE1/4-OHE2): almost exclusively
formation of depurinating E1(E2)-1-(α,β)-N7Gua adducts (DNA, rat mammary gland; rat mammary gland): almost exclusively

C[C@]12CC[C@@H]3c4ccc(O)c(O)c4CC[C@H]3[C@@H]1CCC2=O [4-OHE1, 4-hydroxyestrone]
formation of depurinating E1(E2)-1-(α,β)-N7Gua adducts (DNA): almost exclusively
formation of depurinating E1(E2)-1-(α,β)-N7Gua adducts (DNA, rat mammary gland; rat, in vivo): almost exclusively

C[C@]12CC[C@@H]3C4=C(CC[C@H]3[C@@H]1CCC2=O)C(=O)C(=O)C=C4 [E1-3,4-Q]
effect of lowering pH on stability [2]: marked increase in stability
half-life ([2]; citric acid, pH 3): 6.5 h
half-life ([2]; distilled h2o, pH 7): 1.83 h
decomposition under mildly basic conditions [2]: decomposed rapidly
half-life ([2]; trishcl, pH 9): < 0.0833 h
half-life ([2]; trizma, pH 5): 3.17 h

C[C@]12CC[C@@H]3c4ccc(O)cc4CC[C@H]3[C@@H]1CC[C@@H]2O [E2, 17β-estradiol]
induction of renal tumors / carcinogenicity (hamster kidney): Malignant renal tumors are induced
